Measurements as given in ChEMBL document CHEMBL1145766, “2-(Anilinomethyl)imidazolines as alpha1 adrenergic receptor agonists: alpha1a subtype selective 2'-heteroaryl compounds” (Bioorg Med Chem Lett, 2003).

Columns and labels:
[1] = biological target: T1, Alpha-1D adrenergic receptor (Homo sapiens, UniProt P25100); assay: Agonism of recombinant human alpha-1D adrenergic receptor, expressed in rat 1 fibroblast cells; format: functional, cell-based
T1 sequence (P25100 whole entry): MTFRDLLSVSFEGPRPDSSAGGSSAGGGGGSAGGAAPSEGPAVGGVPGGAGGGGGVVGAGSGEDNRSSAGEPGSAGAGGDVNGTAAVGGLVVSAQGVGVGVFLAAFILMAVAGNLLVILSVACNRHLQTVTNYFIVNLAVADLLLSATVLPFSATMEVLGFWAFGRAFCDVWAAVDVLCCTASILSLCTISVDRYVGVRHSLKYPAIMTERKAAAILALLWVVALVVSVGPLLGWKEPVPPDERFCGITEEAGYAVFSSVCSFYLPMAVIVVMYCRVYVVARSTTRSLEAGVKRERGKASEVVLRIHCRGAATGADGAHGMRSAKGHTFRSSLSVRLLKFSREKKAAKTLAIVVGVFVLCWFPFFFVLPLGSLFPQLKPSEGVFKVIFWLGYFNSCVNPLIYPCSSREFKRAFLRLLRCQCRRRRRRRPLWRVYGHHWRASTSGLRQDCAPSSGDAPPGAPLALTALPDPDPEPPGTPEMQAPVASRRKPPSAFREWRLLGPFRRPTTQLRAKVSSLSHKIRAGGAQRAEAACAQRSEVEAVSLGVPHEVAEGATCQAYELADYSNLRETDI

[2] = biological target: T2, Alpha-1A adrenergic receptor (Homo sapiens) (UniProt P35348); assay: Maximal response assayed via calcium mobilization to the human alpha-1A adrenergic receptor compared the percent of the […] phenylephrine response; format: functional
T2 sequence (whole entry): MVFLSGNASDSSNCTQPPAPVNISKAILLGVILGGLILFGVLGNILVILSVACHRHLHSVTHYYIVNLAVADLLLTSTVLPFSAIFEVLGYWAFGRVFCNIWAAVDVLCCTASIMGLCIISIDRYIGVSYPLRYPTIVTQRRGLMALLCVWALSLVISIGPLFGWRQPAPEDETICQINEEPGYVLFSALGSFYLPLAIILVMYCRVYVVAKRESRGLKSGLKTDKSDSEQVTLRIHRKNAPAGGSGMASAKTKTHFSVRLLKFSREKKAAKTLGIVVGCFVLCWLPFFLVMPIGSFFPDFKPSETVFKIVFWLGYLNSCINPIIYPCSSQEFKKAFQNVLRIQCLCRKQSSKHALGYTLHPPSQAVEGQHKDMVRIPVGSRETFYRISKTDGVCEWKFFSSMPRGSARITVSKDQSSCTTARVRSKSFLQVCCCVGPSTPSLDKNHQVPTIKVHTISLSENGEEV

[3] = biological target: T3, Alpha-1B adrenergic receptor (Homo sapiens, UniProt P35368); assay: Agonism of human alpha-1B adrenergic receptor, expressed in rat 1 fibroblast cells; format: functional, cell-based
T3 sequence (P35368 whole entry): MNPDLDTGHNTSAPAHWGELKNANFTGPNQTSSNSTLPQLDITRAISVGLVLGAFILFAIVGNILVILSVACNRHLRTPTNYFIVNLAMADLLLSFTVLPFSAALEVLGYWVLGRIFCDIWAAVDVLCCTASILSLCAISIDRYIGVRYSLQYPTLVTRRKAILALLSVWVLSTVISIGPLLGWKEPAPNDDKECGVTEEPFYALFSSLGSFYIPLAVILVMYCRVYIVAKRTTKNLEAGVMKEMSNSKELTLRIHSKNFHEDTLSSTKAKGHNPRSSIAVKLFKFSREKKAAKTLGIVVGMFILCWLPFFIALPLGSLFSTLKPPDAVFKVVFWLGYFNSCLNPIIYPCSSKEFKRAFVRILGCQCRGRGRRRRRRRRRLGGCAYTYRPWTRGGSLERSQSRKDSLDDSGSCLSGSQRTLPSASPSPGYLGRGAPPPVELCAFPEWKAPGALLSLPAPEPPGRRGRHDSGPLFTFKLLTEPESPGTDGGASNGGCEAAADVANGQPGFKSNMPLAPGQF

[4] = biological target: T4, Alpha-1B adrenergic receptor (Homo sapiens) (UniProt P35368); assay: Maximal response assayed via calcium mobilization to human alpha-1B adrenergic receptor compared to percent of the […] phenylephrine response.; format: functional
T4 sequence (whole entry): T3 sequence (P35368 whole entry)

[5] = biological target: T5, Alpha-1A adrenergic receptor (Homo sapiens, UniProt P35348); assay: Agonism of human alpha-1A adrenergic receptor expressed in rat 1 fibroblast cells; format: functional, cell-based
T5 sequence (P35348 whole entry): T2 sequence (whole entry)

[6] = biological target: T6, Alpha-1D adrenergic receptor (Homo sapiens) (UniProt P25100); assay: Maximal response via calcium mobilization towards Human Alpha-1D adrenergic receptor as percent relative to […] phenylephrine; format: functional
T6 sequence (whole entry): T1 sequence (P25100 whole entry)

[7] = biological target: T6, Alpha-1D adrenergic receptor (Homo sapiens); assay: Maximal response via calcium mobilization towards Human Alpha-1D adrenergic receptor as percent rtelative to […] phenylephrine; format: functional
[8] = biological target: T1, Alpha-1D adrenergic receptor; assay: Inhibitory concentration against radioligand binding to human aAlpha-1D adrenergic receptor, expressed in rat 1 fibroblast cells; format: cell-based
[9] = biological target: T3, Alpha-1B adrenergic receptor; assay: Inhibitory concentration against radioligand binding to human Alpha-1B adrenergic receptor, expressed in rat 1 fibroblast cells; format: cell-based
[10] = biological target: T5, Alpha-1A adrenergic receptor; assay: Inhibitory concentration against radioligand binding to human Alpha-1A adrenergic receptor, expressed in rat 1 fibroblast cells; format: cell-based
[11] = biological target: T1, Alpha-1D adrenergic receptor; assay: Inhibitory concentration against radioligand binding to human Alpha-1D adrenergic receptor, expressed in rat 1 fibroblast cells; format: cell-based

Row | Structure (SMILES) | EC50 [1] | Max response [2] | EC50 [3] | Max response [4] | EC50 [5] | Max response [6] | Max response [7] | IC50 [8] | IC50 [9] | IC50 [10] | IC50 [11]
1 | CCn1cccc1-c1ccccc1NCC1=NCCN1 | > 100000 nM | 93% | > 100000 nM | 0% | 2.51 nM | 0% | – | – | – | – | –
2 | c1ccc(-c2cc[nH]n2)c(NCC2=NCCN2)c1 | 20 nM | 104% | 5.01 nM | 95% | 1 nM | – | 54% | 39.8 nM | 158 nM | 25.1 nM | –
3 | Cc1n[nH]c(-c2ccccc2NCC2=NCCN2)n1 | > 5010 nM | 87% | > 5010 nM | 0% | 794 nM | – | 0% | – | – | – | –
4 | Cn1cc(-c2ccccc2NCC2=NCCN2)cn1 | > 100000 nM | 39% | > 100000 nM | 0% | 398 nM | 0% | – | – | – | – | –
5 | CCCn1ncnc1-c1ccccc1NCC1=NCCN1 | 251 nM | 96% | 316 nM | 74% | 12.6 nM | – | 57% | – | – | – | –
6 | Cc1ccc(-c2ccccc2NCC2=NCCN2)n1C | > 100000 nM | 78% | > 100000 nM | 0% | 50.1 nM | 0% | – | – | – | – | –
7 | Cn1ccnc1-c1ccccc1NCC1=NCCN1 | 200 nM | 88% | 39.8 nM | 104% | 6.31 nM | 92% | – | – | – | – | –
8 | CCn1ccc(-c2ccccc2NCC2=NCCN2)n1 | > 100000 nM | 78% | > 100000 nM | 0% | 25.1 nM | 0% | – | – | – | – | –
9 | CC(C)n1ncnc1-c1ccccc1NCC1=NCCN1 | 3160 nM | 104% | > 100000 nM | 0% | 6.31 nM | – | 37% | – | – | – | –
10 | Cn1ccc(-c2ccccc2NCC2=NCCN2)n1 | 15.8 nM | 116% | 50.1 nM | 33% | 3.16 nM | 29% | – | – | – | – | –
11 | Cn1ncnc1-c1ccccc1NCC1=NCCN1 | 63.1 nM | 91% | 39.8 nM | 93% | 2 nM | – | 116% | – | – | – | –
12 | Cc1nc(-c2ccccc2NCC2=NCCN2)n(C)n1 | > 5010 nM | 98% | > 5010 nM | 0% | 1000 nM | – | 0% | – | – | – | –
13 | FC(F)(F)Cn1nccc1-c1ccccc1NCC1=NCCN1 | > 100000 nM | 76% | > 100000 nM | 0% | 316 nM | 0% | – | – | – | – | –
14 | FC(F)(F)Cn1ncnc1-c1ccccc1NCC1=NCCN1 | > 100000 nM | 91% | > 100000 nM | 0% | 79.4 nM | – | 0% | – | – | – | –
15 | CCn1nccc1-c1ccccc1NCC1=NCCN1 | > 100000 nM | 81% | > 100000 nM | 0% | 63.1 nM | 0% | – | – | – | – | –
16 | c1ccc(-c2cn[nH]c2)c(NCC2=NCCN2)c1 | 20 nM | 112% | 79.4 nM | 72% | 1.26 nM | 62% | – | – | – | – | –
17 | CCn1cc(-c2ccccc2NCC2=NCCN2)cn1 | > 100000 nM | 0% | > 100000 nM | 0% | > 100000 nM | 0% | – | – | – | – | –
18 | c1ccc(-c2nc[nH]n2)c(NCC2=NCCN2)c1 | 3.98 nM | 135% | 5.01 nM | 100% | 0.794 nM | – | 123% | – | – | – | –
19 | CCn1ncnc1-c1ccccc1NCC1=NCCN1 | 126 nM | 107% | 63.1 nM | 94% | 1.26 nM | – | 55% | – | – | – | –
20 | Cn1nccc1-c1ccccc1NCC1=NCCN1 | > 100000 nM | 108% | > 100000 nM | 0% | 10 nM | 0% | – | – | 398 nM | 200 nM | 501 nM
21 | Cn1cccc1-c1ccccc1NCC1=NCCN1 | 251 nM | 103% | > 100000 nM | 0% | 20 nM | 32% | – | – | – | – | –
22 | CCCCn1ncnc1-c1ccccc1NCC1=NCCN1 | 398 nM | 86% | 200 nM | 83% | 200 nM | – | 66% | – | – | – | –
23 | CC(C)n1nccc1-c1ccccc1NCC1=NCCN1 | > 100000 nM | 0% | > 100000 nM | 0% | > 100000 nM | 0% | – | – | – | – | –
24 | CCCn1nccc1-c1ccccc1NCC1=NCCN1 | > 100000 nM | 59% | > 100000 nM | 0% | 251 nM | 0% | – | – | – | – | –
